Results from patent publication US9657014B2, “Substituted 1,6-naphthyridines” (Hoffmann-La Roche Inc., priority 2012, dated 2017).

What follows are compounds tested on human embryonic stem cell derived neural stem cells (NSCs) (assay: Neural stem cell proliferation assay (neurogenesis assay)). Details: Homo sapiens, Neural stem cell, 96 h; Table 1, novel compounds; concentration at which 150% activity of control (100%) is reached; ATP levels (CellTiterGlo) after 4 days incubation.
Assay type: cell-based
Description: Neural Stem Cell Proliferation Assay
Neurogenic properties of small molecules are determined based on the proliferation of human embryonic stem cell derived neural stem cells (NSCs) which were derived via a dual smad inhibition as previously described (Chambers, S. M., et al., Highly efficient neural conversion of human ES and iPS cells by dual inhibition of SMAD signaling, Nature biotechnology, 2009. 27 (3): p. 275-80.)
Compounds respond is measured by the increase in cells based on ATP levels (Promega:CellTiterGlo®) after an incubation period of 4 days.
NSCs are thawed and expanded over 3 passages. On the 14th day, NSCs are seeded in Polyornithin/Laminin coated 384 well plates at a cell density of 21,000 cells/cm^2 in a media volume of 38 μl.
4 hours after cell seeding, compound solutions are added at a volume of 2 μl. Stock solutions of the compounds (water, 5% DMSO) are diluted to obtain a dose response (11 points, dilution factor is 2), ranging from 8 μM to 8 nM. Controls are run to consistently determine the neurogenic properties of the cells:
Negative (neutral) control is cell culture Media (final DMSO concentration: 0.25%).
Positive controls are: • 1. cell culture Media+100 ng/ml FGF2 (final DMSO concentration: 0.1%) • 2. cell culture Media+20 ng/ml EGF (final DMSO concentration: 0.1%) • 3. cell culture Media+100 ng/ml Wnt3a (final DMSO concentration: 0.1%)
After 4 days incubation at 37° C., 5% CO2, the amount of ATP per well is quantified. The ATP concentration is proportional to the cell number. ATP is quantified by using the Promega CellTiterGlo® kit. The CellTiterGlo® reagents contain a cell lysis buffer, a thermo stable luciferase (UltraGlo™ recombinant luciferase), magnesium and luciferin. Luciferin reacts with ATP producing oxyluciferin, AMP and light. The luminescence signal is proportional to the ATP content.
The value of negative (neutral) control is determined for each assay plate by taking the average of 16 negative control wells. The neurogenic compound response is calculated for each compound as (compound/Negative Control)*100.
The values of EC150 from the dose response curve are determined for each test compound. The EC150 is the compound concentration at which 150% activity of control (100%) is reached.
CN(CC1CC1)C(=O)c1ccc2cncc(-c3ccc(Cl)cc3)c2n1 [Example 66, 8-(4-Chlorophenyl)-N-(cyclopropylmethyl)-N-methyl-1,6-naphthyridine-2-carboxamide] showed an EC (150% of control) of 0.7 µM.
For O=C(NCC1CC1)c1ccc2cncc(-c3ccc(Cl)cc3)c2n1 [Example 67, 8-(4-Chlorophenyl)-N-(cyclopropylmethyl)-1,6-naphthyridine-2-carboxamide], the EC (150% of control) was 0.01 µM.
Work on CC(C)(C)CNC(=O)c1ccc2cncc(-c3ccc(Cl)cc3)c2n1 [Example 68, 8-(4-Chlorophenyl)-N-neopentyl-1,6-naphthyridine-2-carboxamide] yielded an EC (150% of control) of 0.07 µM.
CC(C)(C)NC(=O)c1ccc2cncc(-c3ccc(Cl)cc3)c2n1 [Example 69, N-tert-Butyl-8-(4-chlorophenyl)-1,6-naphthyridine-2-carboxamide] was tested, and the EC (150% of control) was 0.32 µM.
CC(C)NC(=O)c1ccc2cncc(-c3ccc(Cl)cc3)c2n1 [Example 70, 8-(4-Chlorophenyl)-N-isopropyl-1,6-naphthyridine-2-carboxamide] showed an EC (150% of control) of 0.6 µM.
CC(C)(CO)NC(=O)c1ccc2cncc(-c3ccc(Cl)cc3)c2n1 [Example 71, 8-(4-Chlorophenyl)-N-(1-hydroxy-2-methylpropan-2-yl)-1,6-naphthyridine-2-carboxamide] gave an EC (150% of control) of 1.06 µM.
CS(=O)(=O)CCNC(=O)c1ccc2cncc(-c3ccc(Cl)cc3)c2n1 [Example 72, 8-(4-Chlorophenyl)-N-(2-(methylsulfonyl)ethyl)-1,6-naphthyridine-2-carboxamide] gave an EC (150% of control) of 0.1 µM.
CN1CCN(C(=O)c2ccc3cncc(-c4ccc(Cl)cc4)c3n2)CC1 [Example 73, (8-(4-Chlorophenyl)-1,6-naphthyridin-2-yl)(4-methylpiperazin-1-yl)methanone] gave an EC (150% of control) of 0.64 µM.
With O=C(c1ccc2cncc(-c3ccc(Cl)cc3)c2n1)N1CCS(=O)(=O)CC1 [Example 74, [8-(4-Chloro-phenyl)-[1,6]naphthyridin-2-yl]-(1,1-dioxo-thiomorpholin-4-yl)-methanone] the EC (150% of control) was 1.68 µM.
With O=C(c1ccc2cncc(-c3ccc(Cl)cc3)c2n1)N1CCC(O)C1 (centres unmarked) [Example 75, (8-(4-Chlorophenyl)-1,6-naphthyridin-2-yl)(3-hydroxypyrrolidin-1-yl)methanone] the EC (150% of control) was 0.4 µM.
N#CC1(NC(=O)c2ccc3cncc(-c4ccc(Cl)cc4)c3n2)CC1 [Example 76, 8-(4-Chlorophenyl)-N-(1-cyanocyclopropyl)-1,6-naphthyridine-2-carboxamide] showed an EC (150% of control) of 1.84 µM.
With NC(=O)c1ccc2cncc(-c3ccc(F)cc3)c2n1 [Example 77, 8-(4-Fluorophenyl)-1,6-naphthyridine-2-carboxamide] the EC (150% of control) was 0.09 µM.
Compound NC(=O)c1ccc2cncc(-c3cccc(F)c3)c2n1 [Example 78, 8-(3-Fluorophenyl)-1,6-naphthyridine-2-carboxamide] has an EC (150% of control) of 0.05 µM.
NC(=O)c1ccc2cncc(-c3ccccc3F)c2n1 [Example 79, 8-(2-Fluorophenyl)-1,6-naphthyridine-2-carboxamide] showed an EC (150% of control) of 0.03 µM.
Cc1ccc(-c2cncc3ccc(C(N)=O)nc23)cc1 [Example 80, 8-Tolyl-1,6-naphthyridine-2-carboxamide] showed an EC (150% of control) of 0.03 µM.
Cc1cccc(-c2cncc3ccc(C(N)=O)nc23)c1 [Example 81, 8-m-Tolyl-1,6-naphthyridine-2-carboxamide] showed an EC (150% of control) of 0.05 µM.
In the case of Cc1ccccc1-c1cncc2ccc(C(N)=O)nc12 [Example 82, 8-o-Tolyl-1,6-naphthyridine-2-carboxamide], the EC (150% of control) is reported as 2.05 µM.
Work on NC(=O)c1ccc2cncc(-c3ccc(F)c(F)c3)c2n1 [Example 83, 8-(3,4-Difluorophenyl)-1,6-naphthyridine-2-carboxamide] yielded an EC (150% of control) of 0.1 µM.
NC(=O)c1ccc2cncc(-c3cc(F)c(F)c(F)c3)c2n1 [Example 84, 8-(3,4,5-Trifluorophenyl)-1,6-naphthyridine-2-carboxamide] showed an EC (150% of control) of 0.25 µM.
N#Cc1ccc(-c2cncc3ccc(C(N)=O)nc23)cc1 [Example 85, 8-(4-Cyanophenyl)-1,6-naphthyridine-2-carboxamide] gave an EC (150% of control) of 0.05 µM.
Compound CS(=O)(=O)c1ccc(-c2cncc3ccc(C(N)=O)nc23)cc1 [Example 86, 8-(4-(Methylsulfonyl)phenyl)-1,6-naphthyridine-2-carboxamide] has an EC (150% of control) of 0.03 µM.
Work on CS(=O)(=O)c1cccc(-c2cncc3ccc(C(N)=O)nc23)c1 [Example 87, 8-(3-(Methylsulfonyl)phenyl)-1,6-naphthyridine-2-carboxamide] yielded an EC (150% of control) of 0.79 µM.
For CS(=O)(=O)c1ccccc1-c1cncc2ccc(C(N)=O)nc12 [Example 88, 8-(2-(Methylsulfonyl)phenyl)-1,6-naphthyridine-2-carboxamide], the EC (150% of control) was 0.5 µM.
COc1ccc(-c2cncc3ccc(C(N)=O)nc23)cn1 [Example 89, 8-(6-Methoxypyridin-3-yl)-1,6-naphthyridine-2-carboxamide] was tested, and the EC (150% of control) was 0.09 µM.
Cc1cc(-c2cncc3ccc(C(N)=O)nc23)ccn1 [Example 90, 8-(2-Methylpyridin-4-yl)-1,6-naphthyridine-2-carboxamide] was tested, and the EC (150% of control) was 0.17 µM.
In the case of NC(=O)c1ccc2cncc(-c3ccc4c(c3)OCO4)c2n1 [Example 91, 8-(Benzo[d][1,3]dioxol-5-yl)-1,6-naphthyridine-2-carboxamide], the EC (150% of control) is reported as 0.03 µM.
NC(=O)c1ccc2cncc(-c3ccc4c(c3)OCCO4)c2n1 [Example 92, 8-(2,3-Dihydrobenzo[b][1,4]dioxin-6-yl)-1,6-naphthyridine-2-carboxamide] gave an EC (150% of control) of 0.03 µM.
NC(=O)c1ccc2cncc(-c3cccc(N4CCOCC4)c3)c2n1 [Example 93, 8-(3-Morpholinophenyl)-1,6-naphthyridine-2-carboxamide] gave an EC (150% of control) of 0.21 µM.
NC(=O)c1ccc2cncc(-c3ccc(N4CCOCC4)cc3)c2n1 [Example 94, 8-(4-Morpholinophenyl)-1,6-naphthyridine-2-carboxamide] showed an EC (150% of control) of 0.01 µM.
Compound NC(=O)c1ccc2cncc(-c3ccc(OC(F)(F)F)cc3)c2n1 [Example 95, 8-(4-(Trifluoromethoxy)phenyl)-1,6-naphthyridine-2-carboxamide] has an EC (150% of control) of 0.05 µM.
O=C(NCc1ccncn1)c1ccc2cncc(-c3ccc(Cl)cc3)c2n1 [Example 96, 8-(4-Chlorophenyl)-N-(pyrimidin-4-ylmethyl)-1,6-naphthyridine-2-carboxamide] showed an EC (150% of control) of 0.17 µM.
CN(C(=O)c1ccc2cncc(-c3ccc(Cl)cc3)c2n1)C1CC1 [Example 97, 8-(4-Chlorophenyl)-N-cyclopropyl-N-methyl-1,6-naphthyridine-2-carboxamide] showed an EC (150% of control) of 0.26 µM.
Work on Cn1cc(-c2cncc3ccc(C(N)=O)nc23)cn1 [Example 98, 8-(1-Methyl-1H-pyrazol-4-yl)-1,6-naphthyridine-2-carboxamide] yielded an EC (150% of control) of 0.14 µM.
With Cn1nccc1-c1cncc2ccc(C(N)=O)nc12 [Example 99, 8-(1-Methyl-1H-pyrazol-5-yl)-1,6-naphthyridine-2-carboxamide] the EC (150% of control) was 2.2 µM.
COCc1cccc(-c2cncc3ccc(C(N)=O)nc23)c1 [Example 100, 8-(3-(Methoxymethyl)phenyl)-1,6-naphthyridine-2-carboxamide] was tested, and the EC (150% of control) was 0.02 µM.
With NC(=O)c1ccc2cncc(-c3ccc(C(F)(F)F)cc3)c2n1 [Example 101, 8-(4-(Trifluoromethyl)phenyl)-1,6-naphthyridine-2-carboxamide] the EC (150% of control) was 0.02 µM.
Work on Cc1nc(C)c(-c2cncc3ccc(C(N)=O)nc23)s1 [Example 102, 8-(2,4-Dimethylthiazol-5-yl)-1,6-naphthyridine-2-carboxamide] yielded an EC (150% of control) of 0.14 µM.
Work on NC(=O)c1ccc2cncc(-c3ccc(-n4cccn4)cc3)c2n1 [Example 103, 8-(4-(1H-Pyrazol-1-yl)phenyl)-1,6-naphthyridine-2-carboxamide] yielded an EC (150% of control) of 0.01 µM.
Compound COCc1ccc(-c2cncc3ccc(C(N)=O)nc23)cc1 [Example 104, 8-(4-(Methoxymethyl)phenyl)-1,6-naphthyridine-2-carboxamide] has an EC (150% of control) of 0.02 µM.
For CC(C)Oc1ccc(-c2cncc3ccc(C(N)=O)nc23)cc1 [Example 105, 8-(4-Isopropoxyphenyl)-1,6-naphthyridine-2-carboxamide], the EC (150% of control) was 0.01 µM.
For CN(C)S(=O)(=O)c1ccc(-c2cncc3ccc(C(N)=O)nc23)cc1 [Example 106, 8-(4-(N,N-Dimethylsulfamoyl)phenyl)-1,6-naphthyridine-2-carboxamide], the EC (150% of control) was 0.19 µM.
